Columns and labels:
[1] = test system: JTNT1 tobacco cell suspension cultures; assay: Single cell production, growth and viability of JTNT1 suspension with microtubule inhibitors in 24-well plates, glycerol medium; details: for cell growth and appearance: all concentrations tested (1, 3, 10 μM)
Excerpt: JTNT1 Tobacco Suspension Cultures. […] Furthermore, Suc stabilizes preformed microtubules, making an examination of the effects of MTIs on preformed microtubules unfeasible. In addition, sucrose increases solution viscosity substantially, and tubulin polymerization is altered at least in part by slowed dimer and polymer diffusion rates. Thus, it was important to have low or no sucrose in medium where the single cell production. Thus, a new JTNT1 line habituated in Glycerol was developed for this study.
Each of the 24 well contained 1 ml of JTNT1 suspension. The 24-well plates were kept on an Innova 4900 Multi Environmental Shaker with special clamps and harnesses to allow stacking of plates up to 6 plates high. The plates were rotated at a speed of 130 rpm and 25° C. in dark.
Single Cell Production. Each compound was dissolved in dimethyl sulfoxide (DMSO) to provide 0.5 Molar stock solutions. One ml of JTNT1 suspension (1 ml PCV/20 ml tobacco media) was added to each well of the 24 well plates. To each well an individual chemical was added to achieve the desired concentrations (at 1 μM, 3 μM, and 10 μM). The cultures were allowed to grow for 7 days on the Innova Shaker. Each day turbidity measurements was taken on each well using a SpectraMax M2^e by Molecular devices (set at 600 absorbance, with 5 readings taken per well). On day 7, cells were observed using the Leica 5000 inverted confocal microscope for formation of single cells and cell viability.

JTNT1 single cells = assay: Cytological characterization of JTNT1 single cells (nucleus, cell wall); format: cell-based, tobacco
Description: JTNT1 Tobacco single cell initiation and sample collection. JTNT1 Tobacco single cells were initiated in two different media, NT1B with 3% sucrose (NT1B-Suc) and NT1B with 3% glycerol (NT1B-Gly) in 3.5 day culture cycle. […] The flasks were closed with a foam stopper and cultured on a orbital shaker at 130 rpm in dark at 25-28° C. The cultures were sub cultured every 3.5 days up to a period of 14 days. Four samples (Suc/Gly grown cells and the control cultures in Suc/Gly media with 0.2% DMSO) of the cultures were harvested every 3.5 days by spinning the suspension at 3000 rpm for 5 minutes. The samples were immediately lyophilized to prevent any cell oxidation to minimize any deleterious effect on the samples introduced post harvest. Single cells were stained with Hoechst nuclear stain for an hour and observed under scopes for any nuclear anomaly up to two culture cycles.
Cell viability and Cell wall. Established JTNT1 single cells were used to stain with FUN1 (F-7030, Molecular Probes, Invitrogen Inc) cell stain which is used for viability test in yeast, and this contains two color fluorescent probes. The third one, Calcofluor White M2R which stains cell wall, was used to stain the cells. For JTNT1 single cells, […] of FUN1 stain is added and the culture was incubated at room temperature for 20 mins 1 mL fresh culture media was added to wash the excess stain and centrifuged at 3000 rpm; the supernantant was discarded. The cells were examined and imaged on Zeiss ApoTome microscope.
Nucleus. Single cells were stained with Hoechst nuclear stain for an hour and observed on Zeiss Apo Tome for any nuclear anomaly up to two culture cycles. Crystal violet stain was also used as a live nuclear stain for observing nuclear structure for ploidy characterization

plant tubulin = details: 1 M Sucrose; cited from earlier work
JTNT1 cells = assay: Plasma membrane staining of single cells with FM4-64; format: cell-based, tobacco; details: 100 nM
Description: Plasmamembrane. JTNT1 cells were incubated with 5 μm FM4-64 (styryl dye) for 5 minutes and washed with fresh media. The culture was centrifuged at 3000 rpm, and fresh media was added. The cells were visualized on Zeiss ApoTome microscope.

For `COc1ccc([C@H]2CC=CC[C@@H]2[N+](=O)[O-])c(OC)c1OC` (racemic) [trimethoxyphenylcyclohexene, (±)-4S,5R-4-nitro-5-(2,3,4-trimethoxyphenyl)-cyclohexene], the bleaching of cells [1] was “mild bleaching”, the single cell formation ([1]; 1 μM, 3 μM, and 10 μM) was “promoted the formation of single cells” and the cell viability ([1]; across all levels (1 μM, 3 μM, 10 μM)) was 80-90%. For the same compound, the “cell growth and appearance” value [1] was “grew very well”, the “nuclear organization of single cells” value (JTNT1 single cells; 1 uM, 3.5 d cultures) was “single nucleus” and the nuclear ploidy (JTNT1 single cells; 14 days of continuous treatments) was “low or no nuclear ploidy percentage”.

For `COP(=S)(NC(C)C)Oc1ccc(C)cc1[N+](=O)[O-]` (stereo not drawn) [APM, Amiprophosmethyl], the “concentration at which single cells were formed” value [1] was 1 to 10 µM, the cell growth ([1]; 1 μM and 3 μM) was “grew well” and the “effect at higher concentration” value ([1]; above 1-10 μM) was “remarkable reduction of growth and cell division inhibition”. The “cell viability (Fluorescein diacetate and Propidium Iodine stains)” value ([1]; tobacco, 7 days) was “up to 70%” and the “effect on plant microtubule length” value (plant tubulin) was “concentration-dependent decrease in plant microtubule length”.

For `CSC(=O)c1c(C(F)F)nc(C(F)(F)F)c(C(=O)SC)c1CC(C)C` [Dithiopyr], the single cell formation ([1]; 1 μM and 3 μM) was “single cells were formed”, the single cell formation ([1]; 10 μM) was “the concentration of the cells was low” and the “cell growth and appearance” value [1] was “healthy, growing and yellow in color”.

With `CCC(C)(CC)c1cc(NC(=O)c2c(OC)cccc2OC)on1` [Isoxeben] the “FM4-64 staining of single cells” value (JTNT1 cells) was “extensive vesicle on the surface”.
